Our source for the Kd values is patent US20250127904A1, “SIGLEC LIGANDS, CONJUGATES, AND METHODS OF USE THEREOF” (Osprey Biopharmaceuticals, Inc., priority 2023, published 2025).

Test [1] addresses T1, biotinylated mouse siglec-2-Fc-Avi (Mus musculus, UniProt P35329).
T1 construct: made in house
T1 sequence (P35329 22-708 limits assumed): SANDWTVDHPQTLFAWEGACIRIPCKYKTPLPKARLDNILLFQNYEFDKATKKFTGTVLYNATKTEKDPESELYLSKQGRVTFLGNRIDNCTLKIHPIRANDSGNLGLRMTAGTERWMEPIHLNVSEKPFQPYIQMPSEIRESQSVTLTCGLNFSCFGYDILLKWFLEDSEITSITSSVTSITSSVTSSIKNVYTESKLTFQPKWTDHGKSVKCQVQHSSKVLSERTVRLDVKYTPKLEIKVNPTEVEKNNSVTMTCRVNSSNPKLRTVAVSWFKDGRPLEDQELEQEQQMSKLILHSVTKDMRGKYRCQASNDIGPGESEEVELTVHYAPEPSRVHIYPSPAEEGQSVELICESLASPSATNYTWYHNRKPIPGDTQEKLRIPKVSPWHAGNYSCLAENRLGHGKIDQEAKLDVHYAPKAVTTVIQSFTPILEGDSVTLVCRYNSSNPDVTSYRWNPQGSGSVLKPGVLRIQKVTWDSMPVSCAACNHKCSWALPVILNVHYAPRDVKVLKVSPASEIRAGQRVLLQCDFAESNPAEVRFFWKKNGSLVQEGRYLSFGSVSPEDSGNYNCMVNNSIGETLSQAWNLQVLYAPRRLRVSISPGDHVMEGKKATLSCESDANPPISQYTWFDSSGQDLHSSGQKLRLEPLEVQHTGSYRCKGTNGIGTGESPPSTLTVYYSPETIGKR
Put plainly: SPR binding to mouse siglec-2/CD22. The note with it: steady-state analysis, read-out: Mouse CD22 affinity. As for the experimental part: (§1) The following proteins were used for CD22 ligand binding: biotinylated human siglec-2/CD22 protein-His-Avitag (Acro Biosystems, Cat #SI2-H82E3), biotinylated mouse siglec-2-Fc-Avi (in-house production), and recombinant cynomolgus siglec-2/CD22 His-tag (R&D systems, Cat #9864-SL-050). Prior to immobilization, CD22 proteins were treated with SialoExo (Genovis, Cat #G1-SM1-020) for 4 hours at 37° C. to remove native sialic acid residues.
(§2) Capture of biotinylated CD22 constructs was performed using a Cytiva SA chip (BR100398) on a Biacore 8K instrument. Human siglec 2 was immobilized on channels 1-4 and mouse siglec 2 on channels 5-8 on the active flow cell (2) and the reference flow cell (1) was immobilized with biotinylated human FGFR2 Fc Avi, an unrelated protein, to account for any nonspecific binding. Human siglec 2 and Mouse siglec 2 were diluted in running buffer to 20 μg/mL and injected on the active flow cell (2) for 300 seconds at 5 μL/min, yielding about 3500 RU of captured constructs.
(§3) Binding experiments of siglec-ligand conjugated proteins or Siglec ligand compounds were performed on the surfaces prepared above in 10 mM HEPES, 150 mM NaCl, 0.05% Tween-20, pH 7.5, 1% DMSO as the running buffer. Compounds were serially diluted in running buffer from 50 μM to 97.6 nM and injected over both the reference and active flow cells for 90 seconds at 30 μL/min. The compounds were then allowed to dissociate from the surface for 120 seconds. No regeneration was required as the compounds completely dissociated from the surface after 30 seconds. Solvent correction was performed using 0.5, 1, 1.5, and 2% DMSO spike into running buffer without DMSO. Data was analyzed using steady-state analysis in Biacore Insight Evaluation Software, version 3.0.
In general terms: In SPR one partner is held on a chip, and binding of the other changes the refractive index at the surface.

Test [2] deals with recombinant cynomolgus siglec-2/CD22 His-tag (Macaca fascicularis, UniProt A0A2K5WCZ6). As to the kind of experiment: SPR binding to cynomolgus siglec-2/CD22. The note with it: steady-state analysis, read-out: Cyno CD22 affinity. The protocol: as §1
Chain of recombinant cynomolgus siglec-2/CD22 His-tag (A0A2K5WCZ6 entry or part of it): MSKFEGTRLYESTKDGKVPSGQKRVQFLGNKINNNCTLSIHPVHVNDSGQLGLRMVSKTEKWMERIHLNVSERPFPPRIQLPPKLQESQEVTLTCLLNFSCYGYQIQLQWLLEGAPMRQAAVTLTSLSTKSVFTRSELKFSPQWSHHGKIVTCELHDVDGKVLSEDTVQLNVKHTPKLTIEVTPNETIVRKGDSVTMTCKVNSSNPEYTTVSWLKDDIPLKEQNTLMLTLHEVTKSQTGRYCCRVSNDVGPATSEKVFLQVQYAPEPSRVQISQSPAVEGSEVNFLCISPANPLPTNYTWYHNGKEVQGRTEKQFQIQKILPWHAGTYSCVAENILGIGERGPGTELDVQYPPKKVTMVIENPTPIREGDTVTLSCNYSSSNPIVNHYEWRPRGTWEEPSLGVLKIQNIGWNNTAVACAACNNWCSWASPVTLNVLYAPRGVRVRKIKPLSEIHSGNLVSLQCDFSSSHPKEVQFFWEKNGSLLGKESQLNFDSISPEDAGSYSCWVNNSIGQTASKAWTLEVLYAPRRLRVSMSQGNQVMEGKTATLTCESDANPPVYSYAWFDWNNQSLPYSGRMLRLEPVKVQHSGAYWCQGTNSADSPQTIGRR
Surface preparation for cyno CD22 protein consisted of amine coupling to Cytiva CM5 chip (Cytiva, Cat #BR100530) using the Cytiva amine coupling kit Type 2 (Cytiva, Cat #BR100633). Following the standard amine coupling protocols, EDC and NHS from the kit were mixed 1:1 and injected over flow cells 1 and 2. Cyno CD22 was then immobilized by injecting 10 μg/mL in Sodium Acetate, pH 5.5 onto flow cell (2) for 420 seconds at 10 uL/min, yielding approximately 2500 RU of captured protein. Any active carboxy groups were then capped with 1M Ethanolamine, pH 8.5 for 420 s on flow cells 1 and 2.
as §3

For test [3], the target named is T2, biotinylated human siglec-2/CD22 protein-His-Avitag (Homo sapiens, UniProt P20273).
T2 construct: purchased Acro Biosystems SI2-H82E3
T2 sequence (P20273 20-847): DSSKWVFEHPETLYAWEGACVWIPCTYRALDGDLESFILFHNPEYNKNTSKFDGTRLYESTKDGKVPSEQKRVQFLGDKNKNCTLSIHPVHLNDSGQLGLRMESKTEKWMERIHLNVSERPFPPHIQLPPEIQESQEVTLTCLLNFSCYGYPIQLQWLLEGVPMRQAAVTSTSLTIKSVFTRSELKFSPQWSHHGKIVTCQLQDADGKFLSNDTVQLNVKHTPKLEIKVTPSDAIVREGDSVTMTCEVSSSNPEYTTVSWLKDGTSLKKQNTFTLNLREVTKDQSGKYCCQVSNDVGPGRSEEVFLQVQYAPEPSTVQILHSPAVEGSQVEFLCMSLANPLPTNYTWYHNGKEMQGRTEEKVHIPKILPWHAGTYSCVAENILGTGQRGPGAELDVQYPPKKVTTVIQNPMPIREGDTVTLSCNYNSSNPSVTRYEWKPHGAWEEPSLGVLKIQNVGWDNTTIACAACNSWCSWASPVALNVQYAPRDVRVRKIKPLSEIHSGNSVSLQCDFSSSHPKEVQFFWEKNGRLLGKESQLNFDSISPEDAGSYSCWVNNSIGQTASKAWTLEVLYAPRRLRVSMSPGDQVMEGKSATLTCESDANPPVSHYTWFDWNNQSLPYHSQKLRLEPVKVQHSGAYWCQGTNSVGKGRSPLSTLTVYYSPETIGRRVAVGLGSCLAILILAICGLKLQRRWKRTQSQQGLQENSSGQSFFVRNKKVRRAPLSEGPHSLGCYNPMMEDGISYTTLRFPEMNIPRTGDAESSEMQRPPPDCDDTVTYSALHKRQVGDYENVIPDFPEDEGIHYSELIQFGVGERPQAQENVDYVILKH
Put plainly: SPR binding to human siglec-2/CD22. The note with it: steady-state analysis, read-out: Human CD22 affinity. As for the experimental part: as §1, §2, §3

As to `C#Cc1ccc(CC(=O)NC[C@@H](O)[C@@H](O)[C@@H]2O[C@@](OCc3ccccc3)(C(=O)O)C[C@H](O)[C@H]2NC(=O)CO)cc1` [Compound 1, (2R,4S,5R,6R)-2-(benzyloxy)-6-((1R,2R)-3-(2-(4-ethynylphenyl)acetamido)-1,2-dihydroxypropyl)-4-hydroxy-5-(2-hydroxyacetamido)tetrahydro-2H-pyran-2-carboxylic acid], the Kd in test [1] is less than 1000 nM; in test [2], 1000 to 10000 nM; in test [3], less than 1000 nM.
Consider `O=C(Cc1ccc(-c2cn(CCO)nn2)cc1)NC[C@@H](O)[C@@H](O)[C@@H]1O[C@@](OCc2ccccc2)(C(=O)O)C[C@H](O)[C@H]1NC(=O)CO` [Compound 2, (2R,4S,5R,6R)-2-(benzyloxy)-6-((1R,2R)-1,2-dihydroxy-3-(2-(4-(1-(2-hydroxyethyl)-1H-1,2,3-triazol-4-yl)phenyl)acetamido)propyl)-4-hydroxy-5-(2-hydroxyacetamido)tetrahydro-2H-pyran-2-carboxylic acid], for which the Kd in test [1] and in test [3] was 1000 to 10000 nM in each case.
As for `C#Cc1ccc(CC(=O)NC[C@@H](O)[C@@H](O)[C@@H]2O[C@@](OCc3ccc(O)cc3)(C(=O)O)C[C@H](O)[C@H]2NC(=O)CO)cc1` [Compound 3, (2R,4S,5R,6R)-6-((1R,2R)-3-(2-(4-ethynylphenyl)acetamido)-1,2-dihydroxypropyl)-4-hydroxy-5-(2-hydroxyacetamido)-2-((4-hydroxybenzyl)oxy)tetrahydro-2H-pyran-2-carboxylic acid], the Kd in test [1] is 1000 to 10000 nM; in test [2], less than 1000 nM; in test [3] it was less than 1000 nM.
As to `C#CCOc1ccc(CC(=O)NC[C@@H](O)[C@@H](O)[C@@H]2O[C@@](OCc3ccccc3)(C(=O)O)C[C@H](O)[C@H]2NC(=O)CO)cc1` [Compound 4, (2R,4S,5R,6R)-2-(benzyloxy)-6-((1R,2R)-1,2-dihydroxy-3-(2-(4-(prop-2-yn-1-yloxy)phenyl)acetamido)propyl)-4-hydroxy-5-(2-hydroxyacetamido)tetrahydro-2H-pyran-2-carboxylic acid], the Kd in test [1] and in test [3] was 1000 to 10000 nM each time.
Take `O=C(Cc1ccc(OCc2cn(CCO)nn2)cc1)NC[C@@H](O)[C@@H](O)[C@@H]1O[C@@](OCc2ccccc2)(C(=O)O)C[C@H](O)[C@H]1NC(=O)CO` [Compound 5, (2R,4S,5R,6R)-2-(benzyloxy)-6-((1R,2R)-1,2-dihydroxy-3-(2-(4-((1-(2-hydroxyethyl)-1H-1,2,3-triazol-4-yl)methoxy)phenyl)acetamido)propyl)-4-hydroxy-5-(2-hydroxyacetamido)tetrahydro-2H-pyran-2-carboxylic acid]: the Kd in test [1] and in test [3] was 1000 to 10000 nM throughout.
For `C#CCCCCCCC#Cc1ccc(CC(=O)NC[C@@H](O)[C@@H](O)[C@@H]2O[C@@](OCc3ccccc3)(C(=O)O)C[C@H](O)[C@H]2NC(=O)CO)cc1` [Compound 6, (2R,4S,5R,6R)-2-(benzyloxy)-6-((1R,2R)-3-(2-(4-(deca-1,9-diyn-1-yl)phenyl)acetamido)-1,2-dihydroxypropyl)-4-hydroxy-5-(2-hydroxyacetamido)tetrahydro-2H-pyran-2-carboxylic acid], the Kd in test [1] and in test [3] was 1000 to 10000 nM in each case.
With `C#CCCCCCCCCOc1ccc(CC(=O)NC[C@@H](O)[C@@H](O)[C@@H]2O[C@@](OCc3ccccc3)(C(=O)O)C[C@H](O)[C@H]2NC(=O)CO)cc1` [Compound 7, (2R,4S,5R,6R)-2-(benzyloxy)-6-((1R,2R)-3-(2-(4-(dec-9-yn-1-yloxy)phenyl)acetamido)-1,2-dihydroxypropyl)-4-hydroxy-5-(2-hydroxyacetamido)tetrahydro-2H-pyran-2-carboxylic acid], the Kd in test [1], in test [2] and in test [3] was 1000 to 10000 nM each time.
Consider `O=C(O)CCCCCCCCCCc1ccc(CC(=O)NC[C@@H](O)[C@@H](O)[C@@H]2O[C@@](OCc3ccccc3)(C(=O)O)C[C@H](O)[C@H]2NC(=O)CO)cc1` [Compound 8, (2R,4S,5R,6R)-2-(benzyloxy)-6-((1R,2R)-3-(2-(4-(10-carboxydecyl)phenyl)acetamido)-1,2-dihydroxypropyl)-4-hydroxy-5-(2-hydroxyacetamido)tetrahydro-2H-pyran-2-carboxylic acid], for which the Kd is less than 1000 nM in test [1], 1000 to 10000 nM in test [2] and less than 1000 nM in test [3].
As to `C#Cc1ccc(CC(=O)NC[C@@H](O)[C@@H](O)[C@@H]2O[C@@](OCCCCCCN)(C(=O)O)C[C@H](O)[C@H]2NC(=O)CO)cc1` [Compound 10, (2R,4S,5R,6R)-2-((6-aminohexyl)oxy)-6-((1R,2R)-3-(2-(4-ethynylphenyl)acetamido)-1,2-dihydroxypropyl)-4-hydroxy-5-(2-hydroxyacetamido)tetrahydro-2H-pyran-2-carboxylic acid], the Kd in test [1] and in test [3] was 1000 to 10000 nM throughout.
For `C#Cc1ccc(CC(=O)NC[C@@H](O)[C@@H](O)[C@@H]2O[C@@](OCCCCCCNc3c(NCCOC)c(=O)c3=O)(C(=O)O)C[C@H](O)[C@H]2NC(=O)CO)cc1` [Compound 26, (2R,4S,5R,6R)-6-((1R,2R)-3-(2-(4-ethynylphenyl)acetamido)-1,2-dihydroxypropyl)-4-hydroxy-5-(2-hydroxyacetamido)-2-((6-((2-((2-methoxyethyl)amino)-3,4-dioxocyclobut-1-en-1-yl)amino)hexyl)oxy)tetrahydro-2H-pyran-2-carboxylic acid], the Kd in test [1] and in test [3] was less than 1000 nM in each case.
For `C#Cc1ccc(CC(=O)NC[C@@H](O)[C@@H](O)[C@@H]2O[C@@](OCCCCCCNC(=O)CCCC)(C(=O)O)C[C@H](O)[C@H]2NC(=O)CO)cc1` [Compound 29, (2R,4S,5R,6R)-6-((1R,2R)-3-(2-(4-ethynylphenyl)acetamido)-1,2-dihydroxypropyl)-4-hydroxy-5-(2-hydroxyacetamido)-2-((6-pentanamidohexyl)oxy)tetrahydro-2H-pyran-2-carboxylic acid], the Kd in test [1] and in test [3] was less than 1000 nM in each case.
